Patent US12421249B2, “Inhibitors of APOL1 and methods of using same” (Vertex Pharmaceuticals Incorporated, priority 2020, dated 2025)
Where two headings read alike, the source gives them in different places.

How the values were obtained:
APOL1 G1 = target: T1, APOL1 G1 (Homo sapiens, UniProt O14791, I384M/S342G); experiment: Trypanosoma brucei brucei Lysis Assay Using APOL1 Recombinant Protein (AlamarBlue viability readout); assay type: cell-based; conditions: for IC50: IP50 = IC50 for cell proliferation, read-out: Trypanosome Assay IP50; for Emax: read-out: Trypanosome Assay Max Activity (%)
T1 sequence (O14791 28-398 S342G/I384M): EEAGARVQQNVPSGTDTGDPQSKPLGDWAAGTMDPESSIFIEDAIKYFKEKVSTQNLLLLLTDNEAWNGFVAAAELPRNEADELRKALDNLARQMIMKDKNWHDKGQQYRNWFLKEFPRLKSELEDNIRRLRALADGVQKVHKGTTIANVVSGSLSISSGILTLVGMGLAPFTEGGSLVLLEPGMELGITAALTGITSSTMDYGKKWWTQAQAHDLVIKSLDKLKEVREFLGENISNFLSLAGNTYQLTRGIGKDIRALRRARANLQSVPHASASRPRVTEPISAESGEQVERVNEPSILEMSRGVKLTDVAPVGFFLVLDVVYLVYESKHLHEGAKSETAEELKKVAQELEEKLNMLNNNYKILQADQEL
How it was run: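 Percent viability comes from AlamarBlue (resazurin→resorufin) fluorescence interpolated on a standard curve of known parasite numbers, with no-APOL1 wells as 100%. Parasites (Lister 427 bloodstream form, 120,000/well, serum-free assay medium) meet 0.05 μg/mL APOL1 (~EC90). Compounds span a 10-point series, 0.1% DMSO final.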

APOL1 = target: T2, APOL1 (Homo sapiens, UniProt O14791); experiment: Multi-Tox Assay (MultiTox-Fluor Multiplex Cytotoxicity Assay in tet-inducible APOL1 T-REx-HEK293 cells; Table 46 does not say which APOL1 variant G0/G1/G2); assay type: cell-based; conditions: APOL1 variant not given; for IC50: IP50 = IC50 for cell proliferation
T2 sequence (O14791 1-398 S342G/I384M): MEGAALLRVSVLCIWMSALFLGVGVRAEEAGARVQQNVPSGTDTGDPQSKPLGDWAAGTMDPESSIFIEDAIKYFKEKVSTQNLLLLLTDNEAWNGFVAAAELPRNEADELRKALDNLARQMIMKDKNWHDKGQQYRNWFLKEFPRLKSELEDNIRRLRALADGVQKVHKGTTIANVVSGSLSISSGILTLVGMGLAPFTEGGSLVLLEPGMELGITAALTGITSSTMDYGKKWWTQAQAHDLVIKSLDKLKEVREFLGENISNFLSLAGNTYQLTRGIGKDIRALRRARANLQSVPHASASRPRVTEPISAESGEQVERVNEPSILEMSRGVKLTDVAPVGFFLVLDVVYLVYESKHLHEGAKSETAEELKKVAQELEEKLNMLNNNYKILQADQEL

Row | Compound | IC50 (APOL1 G1; Trypanosome Assay) | Emax (APOL1 G1; Trypanosome Assay) | Multi-Tox Assay Max Activity (%) (APOL1) | IC50 (APOL1) | Emax (APOL1 G1) | IC90 (APOL1) | Trypanosome Assay Max Activity (%) (APOL1 G1; Trypanosome Assay)
1 | CCc1c[nH]c([C@@H]2C[C@]3(C[C@H](C)N2)OCCc2cc(Cl)sc23)n1 (racemic) [Compound 153] | > 500 nM | 89.5% | 96.0% | 50 to 500 nM |  |  | 
2 | COc1nn(C)cc1[C@@H]1C[C@]2(C[C@H](C)N1)OCCc1cc(Cl)sc12 (racemic) [Compound 154] | > 500 nM | 96.5% |  | > 500 nM |  |  | 
3 | Cc1coc([C@@H]2C[C@]3(C[C@H](C)N2)OCCc2cc(Cl)sc23)n1 (racemic) [Compound 155] | > 500 nM | 97% |  | 50 to 500 nM |  |  | 
4 | Cc1nc([C@@H]2C[C@]3(C[C@H](C)N2)OCCc2cc(Cl)sc23)c[nH]1 (racemic) [Compound 156] | > 500 nM | 85% |  | > 500 nM |  |  | 
5 | Cc1ncoc1[C@@H]1C[C@]2(C[C@H](C)N1)OCCc1cc(Cl)sc12 (racemic) [Compound 157] | > 500 nM | 95% | 96.3% | 50 to 500 nM |  |  | 
6 | Cc1nn(CCO)cc1[C@@H]1C[C@]2(C[C@H](C)N1)OCCc1cc(Cl)sc12 (racemic) [Compound 158] | > 500 nM | 75.5% |  | > 500 nM |  |  | 
7 | Cc1nc([C@@H]2C[C@]3(C[C@H](C)N2)OCCc2cc(Cl)sc23)cn1C (racemic) [Compound 159] | > 500 nM | 63.5% |  | > 500 nM |  |  | 
8 | C[C@H]1C[C@@]2(C[C@@H](c3cnccc3O)N1)OCCc1cc(Cl)sc12 (racemic) [Compound 160] | > 500 nM | 97.5% |  | > 500 nM |  |  | 
9 | Cc1nc[nH]c1[C@@H]1C[C@]2(C[C@H](C)N1)OCCc1cc(Cl)sc12 (racemic) [Compound 161] | > 500 nM | 73% |  | > 500 nM |  |  | 
10 | CC(C)c1c[nH]c([C@@H]2C[C@]3(C[C@H](C)N2)OCCc2cc(Cl)sc23)n1 (racemic) [Compound 162] | > 500 nM | 81% |  | > 500 nM |  |  | 
11 | C[C@H]1C[C@@]2(C[C@@H](c3cnn4c3OCCC4)N1)OCCc1cc(Cl)sc12 (racemic) [Compound 163] | > 500 nM | 79.5% |  | > 500 nM |  |  | 
12 | Cc1nccnc1[C@@H]1C[C@]2(C[C@H](C)N1)OCCc1cc(Cl)sc12 (racemic) [Compound 164] | > 500 nM | 85% |  | > 500 nM |  |  | 
13 | C[C@H]1C[C@@]2(C[C@@H](c3ncc(C(F)(F)F)[nH]3)N1)OCCc1cc(Cl)sc12 (racemic) [Compound 165] | > 500 nM | 61% | 92.0% | > 500 nM |  |  | 
14 | COc1cccc([C@@H]2C[C@]3(C[C@H](C)N2)OCCc2cc(Cl)sc23)c1O (racemic) [Compound 166] | > 500 nM | 57.5% |  | > 500 nM |  |  | 
15 | Cc1cccnc1[C@@H]1C[C@]2(C[C@H](C)N1)OCCc1cc(Cl)sc12 (racemic) [Compound 167] | > 500 nM | 73% |  | > 500 nM |  |  | 
16 | C[C@H]1C[C@@]2(C[C@@H](c3cccc4cn[nH]c34)N1)OCCc1cc(Cl)sc12 (racemic) [Compound 168] | > 500 nM | 54.5% |  | > 500 nM |  |  | 
17 | C[C@H]1C[C@@]2(C[C@@H](c3n[nH]c4ccccc34)N1)OCCc1cc(Cl)sc12 (racemic) [Compound 169] | > 500 nM | 61% |  | > 500 nM |  |  | 
18 | Cc1nc2c([C@@H]3C[C@]4(C[C@H](C)N3)OCCc3cc(Cl)sc34)cccc2o1 (racemic) [Compound 170] | > 500 nM | 71.5% | 89.7% | > 500 nM |  |  | 
19 | C[C@H]1C[C@@]2(C[C@@H](c3ncnn3C)N1)OCCc1cc(Cl)sc12 (racemic) [Compound 171] | > 500 nM | 14% |  | > 500 nM |  |  | 
20 | C[C@H]1C[C@@]2(C[C@@H](c3ncccc3O)N1)OCCc1cc(Cl)sc12 (racemic) [Compound 172] | > 500 nM | 64.5% |  | > 500 nM |  |  | 

Row | Compound | IC50 (APOL1 G1; Trypanosome Assay) | Emax (APOL1 G1; Trypanosome Assay) | Multi-Tox Assay Max Activity (%) (APOL1) | IC50 (APOL1) | Emax (APOL1 G1) | IC90 (APOL1) | Trypanosome Assay Max Activity (%) (APOL1 G1; Trypanosome Assay)
21 | C[C@@H]1C[C@]2(C[C@H](C)N1)OCC(O)c1cc(Cl)sc12 (mixture of isomers) [Compound 205, (2R,6S)-2-chloro-2′,6′-dimethyl-spiro[4,5-dihydrothieno[2,3-c]pyran-7,4′-piperidine]-4-ol] | 50 to 500 nM |  |  | < 50 nM | 106% |  | 
22 | C[C@@H]1CC2(C[C@@H](c3cn(C)nn3)N1)OCCc1cc(Cl)sc12 (single isomer, unassigned) [Compound 7] | > 500 nM | 92% |  | 50 to 500 nM |  | 50 to 500 nM | 
23 | C[C@H]1CC2(C[C@@H](c3cn(C)nn3)N1)OCCc1sc(Cl)cc12 (single isomer, unassigned) [Compound 173] | < 50 nM | 116% |  | < 50 nM |  |  | 
24 | C[C@H]1CC2(CC(c3cnn(C)c3)N1)OCC(O)c1cc(Cl)sc12 (single isomer, unassigned) [Compound 175] | < 50 nM | 106% | 100.0% | < 50 nM |  | < 50 nM | 
25 | C[C@H]1CC2(CC(c3cnn(C)c3)N1)OCC(O)c1cc(Cl)sc12 (single isomer, unassigned) [Compound 176] | < 50 nM |  | 100.0% | < 50 nM |  | < 50 nM | 115.5%
26 | C[C@H]1C[C@@]2(C[C@@H](c3cn(C)nn3)N1)OCC(O)(C(F)F)c1cc(Cl)sc12 (single isomer, unassigned) [Compound 184] | 50 to 500 nM |  |  | < 50 nM |  |  | 
27 | C[C@H]1C[C@@]2(C[C@@H](c3cn(C)nn3)N1)OCC(O)(C(F)F)c1cc(Cl)sc12 (single isomer, unassigned) [Compound 185] | 50 to 500 nM |  | 99.5% | < 50 nM |  | < 50 nM | 99.0%
28 | C[C@@H]1CC2(C[C@H](C)N1)OCCc1sc(C(F)(F)F)cc12 (single isomer, unassigned) [Compound 196] | 50 to 500 nM | 111% |  | 50 to 500 nM |  |  | 
29 | C[C@@H]1CC2(C[C@H](C)N1)OCCc1cc(Br)sc12 (single isomer, unassigned) [Compound 197] | 50 to 500 nM |  |  | 50 to 500 nM | 106% |  | 
30 | C[C@@H]1CC2(C[C@H](C)N1)OCCc1cc(C3CC(F)(F)C3)sc12 (single isomer, unassigned) [Compound 198] | 50 to 500 nM |  |  | 50 to 500 nM |  |  | 
31 | CCc1cc2c(s1)C1(C[C@@H](C)N[C@@H](C)C1)OCC2 (single isomer, unassigned) [Compound 199] | 50 to 500 nM |  |  | < 50 nM | 110% |  | 
32 | CC(C)c1cc2c(s1)C1(C[C@@H](C)N[C@@H](C)C1)OCC2 (single isomer, unassigned) [Compound 200] | 50 to 500 nM |  |  | 50 to 500 nM | 98.7% |  | 
33 | CC(C)Cc1cc2c(s1)C1(C[C@@H](C)N[C@@H](C)C1)OCC2 (single isomer, unassigned) [Compound 201] | > 500 nM | 76.7% |  | 50 to 500 nM |  |  | 
34 | C[C@@H]1CC2(C[C@H](C)N1)OCCc1cc(C3CCCCC3)sc12 (single isomer, unassigned) [Compound 202] | > 500 nM | 19% |  | > 500 nM |  |  | 
35 | C[C@@H]1CC2(C[C@H](C)N1)OCCc1cc(CC(F)F)sc12 (single isomer, unassigned) [Compound 203] | < 50 nM | 102% |  | < 50 nM |  |  | 
36 | C[C@@H]1CC2(C[C@H](C)N1)OCCc1cc(Cl)sc12 (single isomer, unassigned) [Compound 204] | 50 to 500 nM |  |  | 50 to 500 nM | 112% |  | 
37 | Clc1cc2c(s1)C1(C[C@@H](C3CC3)N[C@@H](C3CC3)C1)OCC2 (single isomer, unassigned) [Compound 206] | 50 to 500 nM | 104% |  | < 50 nM |  |  | 
38 | C[C@@H]1CC2(C[C@H](C)N1)OCCc1cc(C(F)(F)F)sc12 (single isomer, unassigned) [Compound 207] | < 50 nM | 108% |  | < 50 nM |  |  | 
39 | C[C@@H]1CC2(C[C@H](C)N1)OCCc1c2sc(C(F)(F)F)c1CO (single isomer, unassigned) [Compound 208] | 50 to 500 nM | 103% |  | < 50 nM |  |  | 
40 | CC1CC2(CC(C3CC3(F)F)N1)OCCc1cc(Cl)sc12 (single isomer, unassigned) [Compound 212] | < 50 nM | 101% |  | < 50 nM |  |  | 
